Assay results taken from patent EP4559466A1, “MICROBIOTA SIGNATURE TO DETECT FOOD ADDICTION AND TREATMENT THEREOF” (Universitat Pompeu Fabra (UPF), priority 2023, dated 2025).

What was measured:
C57BI/6J mice = test: Mouse food addiction operant protocol with prebiotics in drinking water; assay type: in vivo; settings: for mice that achieved the addiction criteria (2-3 criteria, considered addicted): 1% in drinking water during whole protocol, 120 sessions, late period (95-112 sessions), n=12 per group, 41.67% of control mice addicted, χ^2=8.57 control vs lactulose, χ^2=12 control vs rhamnose, P<0.01; for persistence of response: compared to control group
Procedure: Mice were trained to obtain chocolate-flavored pellets (n=59) in operant boxes during 98 sessions in 1 h-daily self-administration sessions. The operant boxes and daily self-administration protocol of food addiction were accurately described in previous publications (Martín-García E, Domingo-Rodriguez L, Maldonado R. An Operant Conditioning Model Combined with a Chemogenetic Approach to Study the Neurobiology of Food Addiction in Mice. Bio-Protocol 2020;10:1-23. doi:10.21769/bioprotoc.3777; Domingo-Rodriguez L, Ruiz de Azua I, Dominguez E, et al. A specific prelimbic-nucleus accumbens pathway controls resilience versus vulnerability to food addiction. Nat Commun 2020;11:1-16. doi:10.1038/s41467-020-14458-y). Mice were under fixed-ratio 1 (FR1) during six sessions, followed by 92 sessions under FR5. The food addiction-like behavior was evaluated during this operant conditioning maintained by food at a late period (82-92 sessions) to classify mice into the addictive phenotype considering three food addiction-like criteria (1) persistence of response, (2) motivation, and (3) compulsivity. These criteria summarized the main features of the human food addiction diagnosis through the Yale Food Addiction Scale (YFAS 2.0) based on the 5th edition of the diagnostic and statistical manual of mental disorders (DSM-5) for substance use disorders. The three behavioral tests performed to evaluate these three addiction-like criteria (responding during the pellet-free period for the persistence of response, progressive ratio schedule for motivation, and shock-associated unconditioned stimulus for compulsivity) were performed as previously described (Mancino S, Burokas A, Gutiérrez-Cuesta J, et al. Epigenetic and Proteomic Expression Changes Promoted by Eating Addictive-Like Behavior. Neuropsychopharmacology 2015;40:2788-800. doi:10.1038/npp.2015.129). At the end of the late period, animals were categorized into two subpopulations, food-addicted or nonaddicted, depending on the number of addiction-like criteria achieved. Mice with two or three addiction-like criteria were considered addicted, and mice with 0 or 1 addiction-like criteria were considered nonaddicted.
Additionally, four additional phenotypic traits were also evaluated as factors of vulnerability, impulsivity, cognitive inflexibility, appetitive and aversive cue-reactivity. • Impulsivity, the inability to stop a response once it is initiated, was measured as the number of non-reinforced active responses during the time-out period (10 s) after each pellet delivery. This impulsivity-like behavior was delimited to the three consecutive days before the progressive ratio. • Cognitive inflexibility is the incapacity to shift responding to stimuli that have previously predicted the availability of reward. […] In the next 30 min, the cue light associated with pellet delivery during a typical operant training session was illuminated with no contingent pellet reinforcement. To signal the change in the schedule, the cue light was presented twice non-contingently and for 4 s. • Aversive cue-reactivity: To study the conditioning to an aversive stimulus (grid floor), non-reinforced active responses during the following session after the shock test were measured. Mice were placed in the operant box for one hour with the same grid floor used during the shock test. However, during this session, pressing the active lever had no consequences: no shock, no chocolate-flavored pellets, and no cue light.
Mice (n=36) were trained in the same experimental conditions previously described to obtain chocolate flavored pellets during 120 sessions of a 1h-daily self-administration protocol. The duration of training was enhanced in this experiment in order to allow a longer exposure to the prebiotics that could facilitate their effects to modify the behavioral responses. Mice were trained for six days at FR1, followed by 114 FR5 sessions. […]

Blautia [1] = test: Quantitative PCR of Blautia in mouse feces after prebiotic treatment; assay type: in vivo; settings: 1% in drinking water, feces collected at end of protocol, qPCR, vs control
Procedure: At the end of the protocol, feces were collected to quantify Blautia abundance in the gut by quantitative PCR. DNA was extracted from 0.18-0.2g of feces using QIAamp® Fast DNA Stool Mini kit (Qiagen, Germany) and was stored at -20°C.
To quantify the Blautia in the feces, primers g-Blau-R (5'-[…]-3') SEQ ID No 3 and g-Blau-F (5'- […]- 3'), targeting SEQ ID No 4 16S rRNA gene, were used, as previously described. Each reaction mixture (10 µl) comprises LightCycler 480 SYBR Green I Master (Roche Life Science, Germany) and 1ng/µl of genomic DNA. The amplification program consisted of one cycle at 95°C for 10 min, followed by 40 cycles at 94°C for 20 s, 55°C for 20 s, and 60°C for 40 s. The fluorescent products were detected in the last step of each cycle. qPCR amplification and detection were performed in 384-well optical plates with an QuantStudio 12K Flex Real-Time PCR System (Applied Biosystems). A melting curve analysis was performed at the end of the experiment to determine the specificity of an assay. The melting program consisted of the first step of 95°C for 15 s, the second step of 60°C for 1 min, and the last dissociation step of 95°C for 15 s. […]
A qPCR was performed to confirm the effectiveness of targeted prebiotics in increasing Blautia genus abundance in the gut. Based on the generated standard curve, the amount of Blautia per gram of feces was determined. […]

Blautia [2] = settings: Reichardt et al. 2018 (rhamnose); Cui et al. 2021 (lactulose); cited from earlier work
[3] = 1% in drinking water, late period

## OC[C@H]1O[C@@H](O[C@@H]2[C@@H](CO)OC(O)(CO)[C@H]2O)[C@H](O)[C@@H](O)[C@H]1O (stereo partly drawn) [lactulose, 4-O-β-D-galactopyranosyl-D-fructofuranose, reference compound]
C57BI/6J mice
  mice that achieved the addiction criteria (2-3 criteria, considered addicted): none
C57BI/6J mice; [3]
  persistence of response: similar
Blautia [1]
  Blautia abundance in the gut (amount of Blautia per gram of feces): non-significant trend to enhance
Blautia [2]
  amount of Blautia in mice feaces: increases

## C[C@@H]1OC(O)[C@H](O)[C@H](O)[C@H]1O (stereo partly drawn) [rhamnose, (3R,4R,5R,6S)-6-methyloxane-2,3,4,5-tetrol]
C57BI/6J mice
  mice that achieved the addiction criteria (2-3 criteria, considered addicted): none
C57BI/6J mice; 1% in drinking water, late period, compared to control (U=35.50, P<0.05) and lactulose (U=17.00, P<0.001)
  cognitive inflexibility: lower
C57BI/6J mice; [3]
  persistence of response: similar
C57BI/6J mice; 1% in drinking water, late period, compared to control mice, Mann-Whitney's U=31.50, P<0.01
  compulsivity in seeking for palatable food: decreased
C57BI/6J mice; 1% in drinking water, late period, rhamnose compared to lactulose, Mann-Whitney's U=31.50, P<0.05
  motivation for chocolate-flavored pellets: reduced
Blautia [1]
  Blautia abundance in the gut (amount of Blautia per gram of feces): significantly increased
Blautia [2]
  amount of Blautia in mice feaces: increases
